{"source": "patent US8512964B2", "about": "“Targets for treatment of hypercholesterolemia” (The Regents of the University of California, priority 2008, dated 2013)", "key": {"LDLR [1]": {"tested_on": "LDLR", "experiment": "Immunoblot of LDLR protein in immortalized Lxrαβ(−/−) MEFs stably expressing LXRα or vector control", "type": "cell-based, mouse", "conditions": "Lxrαβ(−/−) MEFs with LXRα or vector control, sterol depletion medium, FIG. 1E", "protocol": "The cell lines HEK293T, HepG2, and SV589 were obtained from ATCC. HEK293T were cultured in Optimem containing 2% FBS. HepG2 and SV589 were cultured in DMEM supplemented with 10% FBS. immortalized Lxrαβ^(−/−) mouse embryonic fibroblasts (MEFs) were obtained by immortalizing E13.5 MEFs with a SV40 Large-T antigen retrovirus. To reconstitute mLxrα we transfected Phenix cells with pBabehygro or pBabehygro-mLxra. The resulting supernatant containing the corresponding retroviral particles was used to infect immortalized MEFs. Cells were selected in 800 μg/mL Hygromycin and surviving cells were used. HepG2-LDLR-GFP cells were generated by transfecting HepG2 cells with pEGFP-N1-LDLR and selecting cells with G418 (800 μg/mL).\nPrimary hepatocytes were isolated and maintained as previously reported (Pei et al. (2006) Nat Med 12: 1048). HEK293T cells were transfected using lipofectamine2000 (invitrogen). […] Under these conditions more than 90% of the cells were transduced as assessed by GFP immunofluorescence. […]\n(§1) Total cell or tissue lysates were prepared in RIPA buffer (150 mM NaCl, 1% NP-40, 0.1% Sodium Deoxycholate, 0.1% SDS, 100 mM Tris-HCl, pH 7.4) supplemented with protease inhibitors (Roche Molecular Biochemicals). […] Protein concentration of the cleared lysates was determined using the Bradford assay (Biorad) with BSA as reference. […]"}, "LDLR [2]": {"tested_on": "LDLR", "experiment": "LDLR ubiquitination in HEK293 cells co-transfected with LDLR, Mylip and HA-Ubiquitin", "type": "cell-based", "conditions": "25 μM for 6 h, FIG. 3G", "protocol": "Primary hepatocytes were isolated and maintained as previously reported (Pei et al. (2006) Nat Med 12: 1048). HEK293T cells were transfected using lipofectamine2000 (invitrogen). Typically, 0.8×10^6 cells were seeded in a 60 mm well and transfected the following day with 2 μg DNA. In experiments testing the ability of Mylip to degrade other potential protein targets a ratio of 3:1 (Mylip:target) was used. To infect MEFs and SV589 with adenovirus cells were seeded (0.2×10^6 cells/60 mm well) and infected the following day at an MOI of 300. HepG2 cells were infected at an MOI of 80. Primary hepatocytes were infected 4 hrs after plating at an MOI of 20. Infections were allowed to proceed for 18 hrs after which culture medium was replaced. Under these conditions more than 90% of the cells were transduced as assessed by GFP immunofluorescence. Where indicated, cells were subsequently sterol starved by incubating cells in DMEM supplemented with 10% LPDS, 5 μM Simvastatin, and 100 μM Mevalonic acid for an additional 18 hrs (sterol deficient medium).\nas §1"}, "HepG2 cells": {"tested_on": "HepG2 cells", "experiment": "BODIPY-LDL binding and uptake assay in HepG2 cells", "type": "cell-based", "conditions": "1 μM ligand, FIG. 1A", "protocol": "HepG2 cells were plated at density of 40,000 cells/well. On the following day the cells were pre-treated for 8 hrs with DMSO, 1 μM GW3965, or 1 μM T0901317 in DMEM supplemented with 10% FBS. MEFs (DKO-mLxra) were plated similarly and infected on the following day with the indicated adenovirus (MOI 300) for 18 hrs. Subsequently, cells were washed twice with PBS and incubated for an additional 16 hrs in sterol deficient medium to induce expression of the LDLR. In experiments with HepG2 cells the sterol deficient medium further contained the LXR synthetic ligands indicated above. Uptake was initiated by incubating cells in 200 μl of serum deficient medium containing 5 μg/mL of BODIPY-LDL. For measuring binding of BODIPY-LDL to cells, plates were placed on ice prior to processing. Uptake of BODIPY-LDL was measured after a 30 minute incubation period at 37° C. At that point cells were washed 2× with PBS containing 0.2% BSA and lysed in 100 μl RIPA buffer supplemented with protease inhibitors. Lysates were collected and cleared by centrifugation and 30 μl of cleared lysate was transferred into a 384 well plate and measured on a Typhoon apparatus (Amersham) with filters set for BODIPY. The protein concentration of the cleared lysates was determined and results are presented as relative fluorescence normalized for protein content."}, "Mylip": {"tested_on": "Mylip", "experiment": "Mylip expression in vivo after gavage of mice (realtime PCR)", "parameters": "species or system mouse", "conditions": "mice gavaged 20 mg/kg twice daily for three days, FIG. 2C", "protocol": "Total RNA was isolated from cells and mouse tissues using Trizol (Invitrogen). One microgram of total RNA was reverse transcribed with random hexamers using iScript reverse transcription reagents kit (Biorad). Sybergreen (Diagenode) real-time quantitative PCR assays were performed using an Applied Biosystems 7900HT sequence detector."}, "Mylip LXRE": {"tested_on": "Mylip LXRE", "experiment": "Mylip promoter (LXRE) reporter assay in HEK293 cells transfected with LXR and RXR", "type": "cell-based, mouse", "conditions": "activation by LXRa and GW3965, functional LXRE, FIG. 6D", "protocol": "A 10 Kb promotor region upstream of the mMylip transcription initiation site was analyzed for the presence of LXR binding elements. A consensus DR4 site was identified 2454 upstream of the transcription initiation site. Olignoucleotides encompassing this element were designed, annealed and tested for binding to LXR/RXR heterodimers in a standard EMSA assay. A 2.5 kB promotor fragment upstream of the transcription initiation site containing the identified LXRE was amplified by PCR from BAC clone RP23-17N24 using mMylip-prom-FWD […] (SEQ ID NO:20) or mMylip-prom-ΔFWD […] (SEQ ID NO:21) with the common antisense primer mMylip-prom-REV […] (SEQ ID NO:22). Amplified fragments were cloned as SacI/XhoI fragments into pGL3 basic (Promega). Promotor analysis was done as previously described (Joseph et al. (2002) J Biol Chem 277: 11019)."}}, "note": "Residues, ends and D or L forms follow the SMILES beside them. *: point of attachment. Cbz = O=C(OCc1ccccc1)*"}
{"smiles": "CC(C)CC[C@@H](O)[C@@H](C)[C@H]1CC[C@H]2[C@@H]3CC=C4C[C@@H](O)CC[C@]4(C)[C@H]3CC[C@]12C", "note": "[22(R)-hydroxycholesterol]", "values": [{"measurement": "LDLR protein", "setting": "LDLR [1]", "value": "decreased LDLR protein in the absence or presence of LXRs"}]}
{"smiles": "CC(C)C[C@@H](C=O)NC(=O)[C@H](CC(C)C)NC(=O)[C@H](CC(C)C)NC(=O)OCc1ccccc1", "note": "[MG132] (Cbz-Leu-Leu-Leu-aldehyde)", "values": [{"measurement": "Mylip expression", "setting": "LDLR [2]", "value": "greatly stabilizing"}, {"measurement": "Mylip-dependent level of LDLR ubiquitination", "setting": "LDLR [2]", "value": "did not increase"}]}
{"smiles": "O=C(O)Cc1cccc(OCCCN(Cc2cccc(C(F)(F)F)c2Cl)CC(c2ccccc2)c2ccccc2)c1", "note": "[GW3965]", "values": [{"measurement": "LDLR protein", "setting": "LDLR [1]", "value": "decreased LDLR only in cells expressing LXRα"}, {"measurement": "binding and uptake of bodipy labeled-LDL", "setting": "HepG2 cells", "value": "decreased"}, {"measurement": "Mylip expression in vivo", "setting": "Mylip", "value": "induced"}, {"measurement": "increase in reporter activity", "setting": "Mylip LXRE", "value": "~4", "unit": "fold"}]}
{"smiles": "O=S(=O)(c1ccccc1)N(CC(F)(F)F)c1ccc(C(O)(C(F)(F)F)C(F)(F)F)cc1", "note": "[T0901317]", "values": [{"measurement": "binding and uptake of bodipy labeled-LDL", "setting": "HepG2 cells", "value": "decreased"}]}
